Assay [1] concerns CHO. As to the kind of experiment: cytotoxicity in TLR9-MyD88 CHO cells, dose response, cytotoxicity control for TLR9-MyD88 binding inhibitor project, cell-based, luminescence (AID 588339).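 Further: CHO cells stably coexpressing TLR9 and MyD88 fusions from primary screen; compound exposure lasted 48 hours before viability readout.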 In kind it is functional, hamster. The settings on record: Cricetulus griseus.
A short description of assay [2]: Late stage assay provider counterscreen for TLR9 inhibitors: absorbance-based cell-based MTT cytotoxicity assay. The format is functional.
Assay [3] in a line: inhibitors of PGC1a acetylation in cells, dose response, cell-based, cherry-picked samples (AID 720514).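 Further: potency may reflect raised or lowered acetylation signal.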 The format is functional.
The target in assay [4] is Beta Lactamase (Pseudomonas aeruginosa, UniProt Q932Y6). The assay is described as follows: beta-lactamase reporter inhibitor potency, dose response, artefact control for TLR9-MyD88 binding inhibitor project, BLA reporter cells, FRET fluorescence (AID 588341).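 Further: cell based assay in CHO-K1 cells stably expressing beta-lactamase.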 The format is cell-based.
Assay [5] deals with Photoreceptor-specific nuclear receptor (Homo sapiens, UniProt Q9Y5X4). In kind it is functional, cell-based.
Assay [6] can be described thus: HEK293 cell cytotoxicity, dose response, cytotoxicity control, ATP luminescence, dry powder, Set6 (AID 743142). The format is functional, cell-based.
Assay [7] is described as follows: A549 cell cytotoxicity, dose response, cytotoxicity control, CellTiter-Glo luminescence, dry powder, set 3 (AID 743146). In kind it is functional, cell-based.
The subject of assay [8] is HEK293. As to the kind of experiment: HEK293T cell cytotoxicity, dose response, cytotoxicity control, ATP luminescence, cherry-pick samples (AID 687005).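 Further: cells exposed to compound for 48 hours.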 The format is functional, cell-based. As to conditions: Homo sapiens.
A short description of assay [9]: HEK293 Cytotoxicity Assay Measured in Cell-Based System Using Plate Reader - 7071-01_Inhibitor_Dose_CherryPick_Activity_Set2. In kind it is functional.
Assay [10] has as its target Major prion protein (Homo sapiens, UniProt P04156). In kind it is functional, cell-based.
A short description of assay [11]: cells.
In assay [12] the target is T1, Streptokinase A (Streptococcus pyogenes serotype M1, UniProt P10520).
T1 sequence (P10520 whole entry): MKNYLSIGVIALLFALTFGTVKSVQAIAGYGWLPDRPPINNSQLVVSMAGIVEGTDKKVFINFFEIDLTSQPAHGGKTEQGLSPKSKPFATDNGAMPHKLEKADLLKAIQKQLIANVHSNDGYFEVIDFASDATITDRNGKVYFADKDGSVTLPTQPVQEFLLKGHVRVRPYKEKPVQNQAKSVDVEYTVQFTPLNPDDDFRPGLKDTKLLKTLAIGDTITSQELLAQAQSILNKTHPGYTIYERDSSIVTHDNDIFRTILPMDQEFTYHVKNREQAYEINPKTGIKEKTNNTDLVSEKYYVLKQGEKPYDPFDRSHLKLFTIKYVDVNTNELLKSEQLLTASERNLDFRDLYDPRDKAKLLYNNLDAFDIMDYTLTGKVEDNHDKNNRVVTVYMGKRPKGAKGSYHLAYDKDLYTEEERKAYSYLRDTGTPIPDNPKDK
As to the kind of experiment: S. pyogenes streptokinase expression inhibitors, potency, dose response, plasminogen activation absorbance, OD405 (AID 1914).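 Further: secreted streptokinase activity via plasminogen activation per viability signal from cell pellet.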 The format is functional, Streptococcus pyogenes M1 GAS.

The test system of assay [13] is Streptococcus. The assay is described as follows: Group A Streptococcus viability loss, dose response, counter-screen for streptokinase expression inhibitor project, luminescence, BacTiterGlo (AID 1915).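 Further: potency for reduction of bacterial viability or growth.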 In kind it is functional, organism-based. A general note: The purpose of a counterscreen is to sort out artefacts and off-target activity.
Assay [14] is described as follows: HepG2 cell cytotoxicity, dose response, cytotoxicity control, ATP luminescence, cherry-pick, activator set 2 (AID 1053143). In kind it is functional, cell-based.
In assay [15] the target is T2, Heat shock factor protein 1 (Mus musculus, UniProt P38532).
T2 sequence (P38532 whole entry): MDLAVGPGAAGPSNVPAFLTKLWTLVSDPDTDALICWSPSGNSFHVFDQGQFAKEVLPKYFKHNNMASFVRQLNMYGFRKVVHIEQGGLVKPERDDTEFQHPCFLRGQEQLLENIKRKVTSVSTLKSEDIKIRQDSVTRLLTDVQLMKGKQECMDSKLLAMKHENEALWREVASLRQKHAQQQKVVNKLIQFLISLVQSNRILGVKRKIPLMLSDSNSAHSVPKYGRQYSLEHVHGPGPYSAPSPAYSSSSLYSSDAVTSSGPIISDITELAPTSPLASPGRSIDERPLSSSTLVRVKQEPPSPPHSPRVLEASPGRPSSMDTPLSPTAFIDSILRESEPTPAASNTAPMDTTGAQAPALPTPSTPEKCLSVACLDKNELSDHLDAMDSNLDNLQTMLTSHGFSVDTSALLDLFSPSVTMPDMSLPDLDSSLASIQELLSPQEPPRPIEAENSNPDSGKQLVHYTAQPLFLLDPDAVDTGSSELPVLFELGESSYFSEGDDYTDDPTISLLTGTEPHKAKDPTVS
As to the kind of experiment: HSF1 potentiators in luciferase reporter cells, confirmation, cell-based, NIH3T3, luminescence, dose retest (AID 435004).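 Further: stress induced by proteasome inhibitor MG132 added 30 min after compound; luciferase reporter driven by HSF1 response element in NIH3T3 cells; actives raise luminescence as potentiators of the MG132 stress response.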 In kind it is functional. Background: A reporter such as luciferase makes a cellular process visible.

A short description of assay [16]: IOSE-T80 ovarian epithelial cell cytotoxicity, dose response, cytotoxicity control for PAX8 inhibitor project, plate reader, dry powder samples (AID 743045). The format is functional, cell-based.
The nature of assay [17]: NIH:OVCAR-3 ovarian cancer cell cytotoxicity, dose response, PAX8 inhibitor project, plate reader, dry powder samples (AID 743044). The format is functional, cell-based.
Assay [18] is described as follows: cytotoxicity in COV362 ovarian cancer cells, dose response, cytotoxicity control for PAX8 inhibitor project, cell-based, plate reader, dry powder, SA12 (AID 743144). In kind it is functional.
Assay [19] is described as follows: cytotoxicity in COV434 cells, dose response, cytotoxicity control for PAX8 inhibitor project, cell-based, plate reader, dry powder, SA7 (AID 743145). In kind it is functional.
Assay [20] can be described thus: cytotoxicity in OV-90 ovarian cancer cells, dose response, PAX8 inhibitor project, cell-based, plate reader, dry powder, SA8 (AID 743149). In kind it is functional.
A short description of assay [21]: IGROV1 ovarian cancer cell cytotoxicity, dose response, PAX8 inhibitor project, plate reader, dry powder samples (AID 743043). In kind it is functional, cell-based. The settings on record: IGROV-1.
A short description of assay [22]: PAX5 activity inhibitors, dose response, selectivity assay for PAX8 inhibitor project, cell-based, plate reader, dry powder samples (AID 743047).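 Further: HEK293 cells carrying a Pax5 driven CD19 promoter luciferase reporter; potency of inhibitors that lower reporter luminescence.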 The format is functional.
Assay [23] can be described thus: cytotoxicity in OVCAR4 cells, dose response, cytotoxicity control for PAX8 inhibitor project, cell-based, plate reader, dry powder, SA11 (AID 743150). In kind it is functional. The settings on record: OVCAR-4.
Assay [24] can be described thus: cytotoxicity dependent on PAX8, dose response, cell-based, plate reader, dry powder (AID 743049). The format is functional.
The nature of assay [25]: PAX2 cell-based inhibition, dose response, selectivity assay for PAX8 inhibitor project, plate reader, dry powder samples (AID 743048).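 Further: HEK293 cells carrying a WT1 promoter luciferase reporter driven by expressed Pax2; potency is for inhibition of Pax2 driven reporter signal.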 The format is functional.
The target in assay [26] is Potassium channel subfamily K member 3 (Homo sapiens, UniProt O14649). The assay is described as follows: TASK1 (KCNK3) potassium channel inhibitors, SAR follow-up, CHO cells, FluxOR thallium flux (AID 652212). In kind it is functional.
The target in assay [27] is Potassium channel subfamily K member 9 (Homo sapiens, UniProt Q9NPC2). The assay is described as follows: TASK3 (KCNK9) channel inhibitors, thallium flux, SAR follow-up, selectivity assay for TASK1 inhibitor project, cell-based, FluxOR thallium flux, concentration-response (AID 652211).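 Further: potency is for inhibitors of the channel.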 The format is functional.
Assay [28] in a line: Late stage assay provider results from the probe development effort to identify selective inhibitors of heat shock protein 90 (HSP90): Absorbance-based cell proliferation assay in MCF7 cells. The format is functional.
A short description of assay [29]: Late stage assay provider results from the probe development effort to identify selective inhibitors of heat shock protein 90 (HSP90): Absorbance-based cell proliferation assay in SKBR3 cells. The format is functional. As to conditions: SK-BR-3.

Active and inactive are the calls of the source.

For the compound `COc1ccc(C[C@@H]2OC3(C=CC(=O)C=C3)O[C@H]2Cc2ccc(OC)cc2)cc1`, the IC50 (as a rule, the midpoint of a concentration-inhibition curve) in assay [1] is 0.597 µM (active); in assay [4], 17.5 µM (inactive); in [5], 0.149 µM (active). Further, the CC50 – broadly, the concentration at which the toxic effect on the cells reaches its halfway point – in [2] was 0.48 µM (active). Further, in assay [3], the AC50 (in general, the concentration at which the activity in the assay is half-maximal) is 0.756 µM (active).
For `COc1ccc(C(=O)NCCC(=O)N[C@@H]2CCCc3ccccc32)cc1`, the AC50 in assay [6] was 3.54 µM (active); in [7], > 52 µM (inactive).
For `COc1ccc(NC(=O)Nc2ccc3c(c2)C(=O)N([C@H](C)CO)C[C@H](C)[C@H](CN(C)C(=O)Cc2ccccc2)OCCCC[C@H](C)O3)cc1`, the AC50 in assay [8] and in assay [9] was 25.4 µM (active) throughout.
Take `O=C(O)CCC(=O)NNC(=O)COc1ccc2ccccc2c1Br`: the IC50 in assay [10] was 4.45 µM (active); in assay [11], > 138 µM (inactive).
Consider `Cn1nnc(-c2ccc(OCc3ccccc3F)cc2)n1`, for which the EC50 – broadly, the concentration needed to bring the measured effect to its halfway point – in assay [12] is > 150 µM (not active); in assay [13], > 150 µM (not active); in [15], > 260 µM (inactive). The AC50 in [14] is 26 µM (active).
Regarding `N#C[C@@H]1[C@@H](c2ccc(C#Cc3ccccc3F)cc2)[C@@H](CO)N1C(=O)C1CCCC1`, the AC50 in assay [16] was 27 µM (active); in assay [17] it was 29.7 µM (active); in assay [18] it was 48.5 µM (active); in assay [19], 10.9 µM (active); in assay [20], 35.3 µM (active); in [21], 47.3 µM (active). Moreover, the half-maximal activity concentration (AC50) was 18.1 µM (active) in assay [22], 44.3 µM (active) in [23], 11.9 µM (active) in assay [24] and 16.5 µM (active) in assay [25].
Turning to `CCOc1ccccc1NC(=O)c1cccc(NC(=O)c2cccc(C(F)(F)F)c2)c1`, the IC50 in [26] was 0.232 µM (active); in [27], 1.38 µM (active).
For `COc1c[nH]c(C(=O)Nc2ccc(C(C)C)cc2)cc1=O`, the IC50 in assay [28] and in [29] was > 100 µM (inactive) each time.

Source of the values: ChEMBL document CHEMBL1201862, “PubChem BioAssay data set” (2004).
